# Measurements as given in patent US9611286B2, “Ruthenium carbon monoxide releasing molecules and uses thereof” (Alfama, Inc., priority 2011, dated 2017).
# Assays:
# P. berghei ANKA GFP = experiment: Adjunctive/adjuvant therapy with artesunate after onset of ECM; type: in vivo, C57BL/6 mice; conditions: during administration of AS, between days 5 and 6
# Method: Thus, the inventors decided to test Compound 1 as an adjunctive and adjuvant therapy during the acute phase of ECM. […] Therefore, the inventors assessed the combination of Compound 1 and AS on parasite clearance and clinical recovery from ECM. Two AS and Compound 1 combinations were tested: (i) Adjunctive therapy: AS and Compound 1 were administered concomitantly for 2 days after the onset of CM followed by a 3-day treatment with Compound 1 alone, or (ii) Adjuvant therapy: AS was administered on the first 2 days after CM onset followed by Compound 1 administration for 3 more days.
# In order to evaluate the clinical presentation of experimental cerebral malaria, a classification was used in clinical stages from 0 to 4 (see, e.g., Bienvenu et al., Acta Trop (2008) 106:104-8; Franklin et al., Proc Natl Acad Sci USA (2011) 108:3689-94). Briefly, stage 0 indicates no detectable clinical symptoms, stage 1, ruffled fur; stage 2, ruffled fur and unbalancing; stage 3, limb paralysis and respiratory distress and stage 4, convulsions, coma or death. The mice were clinically classified before and after the treatment to evaluate the clinical recovery.
# CORM-2 (Sigma-Aldrich) and Compound 2 were solubilized using 10% dimethyl sulfoxide (DMSO; Sigma-Aldrich) in PBS. CORM-3 and Compound 1 were solubilized in PBS (lx). CORM-2 solution (20 mg/kg of body weight) was administered intravenously (i.v.) according to the chosen schedules. […] As vehicle control, we used a solution of 10% DMSO in PBS administered i.v. The concentrations of CORM-2 used in the present study were based on previous reports (see, e.g., Chen et al. Am. J. Pathol. (2009) 175:422-429; Sun et al., World. J. Gastroenterol. (2008) 14:547-553). Artesunate is presented as a powder of artesunic acid. Artesunate (AS) solution was prepared by dissolving 60 mg of anhydrous artesunic acid in 1 ml of sodium bicarbonate (5%) to form sodium artesunate and then diluted in 5 ml of NaCl (0.9%). An AS solution (i.p.) was administered at 40 mg/Kg/day, as described previously (see, e.g., Bienvenu, Acta Trop (2008) 106:104-108). The AS treatment was started when the infected non-treated mice presented the clinical stage 1 for experimental cerebral malaria.
# [1] = test system: Myoglobin (Mb) from equine skeletal muscle; experiment: Deoxy-myoglobin (Mb) carbonylation assay, CO release; type: biochemical; conditions: after 15 minutes of incubation with deoxy-Mb, PBS pH 7.4
# Method: The CO donation capacity of Compound 1 by a deoxy-myoglobin (Mb) carbonylation assay was then evaluated (see, e.g., Clark et al., Am J Pathol (1992) 140:325-336).
# The Mb assay was performed as described in Clark et al., Circ. Res. (2003) 93:2-8. A stock solution of Myoglobin (Mb) from equine skeletal muscle was prepared by dissolving the protein in PBS7.4. From this solution aliquots were taken to a cuvette (final concentration between ca. 60 μM) and Na2S2O4 in PBS, pH 7.4 (10 mg/mL solution; 0.1% final concentration) was added to convert met-Mb into deoxy-Mb. The reactions were done by mixing in the same cuvette and by this order, the Mb stock solution, the Na2S2O4 solution, a calculated amount of a solution of Compound I and adding PBS to obtain the desired final volume. […] Two controls were done in duplicate, the negative control (0% CO-Mb), a deoxy-Mb solution and the positive control (100% CO-Mb), obtained by bubbling pure CO gas into the deoxy-Mb solution for 10-15 min. The experimental spectrum was fitted as a weighted sum of the deoxy-Mb and the CO-Mb spectra. […] The absorbance spectrum was converted into a percentage of CO-Mb and the amount of CO liberated was calculated as molar equivalents of CO based on the initial concentration of Compound I (see FIG. 10).
# [2] = Determination of CO in tissues; type: in vivo; conditions: one hour after i.v. administration, non-infected mice
# Method: It is hypothesized that Compound 1 promotes/increases erythrophagocytosis.
# CO was quantified in different tissues as previously described (see, e.g., Vreman et al., Anal Biochem (2005) 341:280-289). Briefly, CO was liberated as gas in a closed vial by adding 25 μL of water and 5 μL of sulfosalicylic acid (SSA, 30% [wt/vol]) to 30 μL of diluted sample after being homogenized. The vials were incubated on ice for at least 10 min before being analyzed. The gas in the headspace of the vials was analyzed quantitatively with a gas chromatograph (GC) equipped with a reducing-compound photometry detector (RCP detector) (Peak Laboratories, Mountain View, Calif.), which allows to quantify CO in gas at concentrations as low as 1-2 parts per billion (ppb). The amount of CO was calculated using a calibration curve prepared from CO standards. Briefly, blood was collected from the tail of the mice to capillary tubes (VWR) with heparin (100 i.u./ml in PBS 1×; LEO Pharma Inc.), transferred into AVOXimeter 4000 cuvettes (ITC) where the levels of carboxyhemoglobin (COHb), oxyhemoglobin (O2Hb) and methemoglobin (MetHb) were measured in a portable AVOXimeter 4000 CO-oximeter (ITC). Results are shown as mean percentage of total hemoglobin species in circulation.
# HO-1 = HO-1 mRNA expression by qRT-PCR in infected mice; type: in vivo, C57BL/6 mice; conditions: day 3 after infection
# Method: (§1) Mice were sacrificed, when infected control mice presented signs of ECM, and perfused intracardially with PBS to remove circulating RBC and leukocytes from the organs. RNA was isolated from brains, livers and lungs using Trizol Reagent (Invitrogen, Life technologies), according to the manufacturer's recommendation. The synthesis of the first-strand cDNA from the RNA templates was carried out using the Transcriptor First Strand cDNA Synthesis Kit (Roche). RT-PCR reactions were performed in the presence of SYBER Green (SYBER Green PCR master mix, Applied Biosystems) on an ABI PRISM 7500Fast (Applied Biosystem). Oligonucleotides used for the specific amplification of genes include:
# (§2) The relative changes in gene expression between experimental and control groups were calculated by the Pfaffl method using hprt as internal control gene. Statistical Analysis
# P. berghei ANKA = experiment: Parasite r18S (pRBC accumulation) in brain by qRT-PCR; type: in vivo, C57BL/6 mice
# Method: as §1, §2
# [3] = Quantification of COHb in peripheral blood; type: in vivo, C57BL/6 mice; conditions: infected mice, day 3 after infection
# Method: Blood was collected from the tail of the mice to capillary tubes (VWR) with heparin (100 i.u./ml in PBS 1×; LEO Pharma Inc.), transferred into AVOXimeter 4000 cuvettes (ITC) where the levels of carboxyhemoglobin (COHb), oxyhemoglobin (02Hb) and methemoglobin (MetHb) were measured in a portable AVOXimeter 4000 CO-oximeter (ITC). Results are shown as mean percentage of total hemoglobin species in circulation.
# CD8β = experiment: CD8-β-chain mRNA expression in brain by qRT-PCR; type: in vivo, C57BL/6 mice
# Method: as §1, §2
compound,measurement,setting,value
"C[SH]([C@@H]1OC(CO)[C@H](O)[C@H](O)C1O)[Ru]([Cl])([Cl])([CH]=O)([CH]=O)[CH]=O (stereo partly shown) [Compound 1, Tricarbonyldichloro(methylthiogalactopyranoside) Ru(II)]",interference with the anti-malarial action of AS,P. berghei ANKA GFP,did not interfere with the anti-malarial action of AS in vivo
same,CO transferred to Mb,[1],approximately 1 equivalent of CO
same,levels of CO in organs,[2],higher levels of CO in the liver and spleen
same,HO-1 mRNA expression in brain vs non-infected and Compound 2-treated mice,HO-1,not significantly different
same,pRBC accumulation in the brain vs Compound 2-treated mice,P. berghei ANKA,significantly lower
same,COHb levels in the blood,[3],without causing measurable increase in COHb levels
same,CD8-β-chain mRNA expression in the brain vs Compound 2-treated mice,CD8β,significantly lower
